The text below walks through data of patent publication EP4624471A1, “PKMYT1 INHIBITOR, PREPARATION METHOD THEREFOR, AND PHARMACEUTICAL COMPOSITION AND USE THEREOF” (Shanghai Qilu Pharmaceutical Research and Development …, priority 2022, dated 2024).

SMILES strings stand for the structures.

A word on the IC50: it is the concentration at which inhibition is half-maximal.

The target of this experiment is T1, PKMYT1 enzyme (Homo sapiens, UniProt Q99640).
T1 construct: purchased Thermo Scientific A33387
T1 sequence (Q99640 1-499): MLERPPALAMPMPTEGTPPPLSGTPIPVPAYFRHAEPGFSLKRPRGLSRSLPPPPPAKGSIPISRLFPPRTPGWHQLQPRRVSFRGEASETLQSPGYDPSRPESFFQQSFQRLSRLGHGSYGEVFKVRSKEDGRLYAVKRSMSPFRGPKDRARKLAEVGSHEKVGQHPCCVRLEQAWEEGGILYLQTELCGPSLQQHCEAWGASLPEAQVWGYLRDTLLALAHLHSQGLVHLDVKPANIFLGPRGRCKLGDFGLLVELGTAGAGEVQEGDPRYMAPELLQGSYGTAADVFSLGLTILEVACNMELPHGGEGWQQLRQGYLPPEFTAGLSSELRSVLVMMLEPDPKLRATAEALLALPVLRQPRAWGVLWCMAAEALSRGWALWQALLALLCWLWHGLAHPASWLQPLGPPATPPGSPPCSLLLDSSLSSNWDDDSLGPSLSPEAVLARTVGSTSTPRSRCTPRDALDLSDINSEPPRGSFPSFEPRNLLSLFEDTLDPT
Kind of experiment: PKMYT1 enzyme inhibition activity, ADP-GLO method. The format is biochemical. The conditions noted are these: PKMYT1 enzyme 10 nM, ATP 5 µM, 37°C 90 minutes; read-out: ADP-GLO IC50. (In general: ADP-Glo first removes unused ATP, then detects ADP through luciferase.)
Procedure: Enzyme inhibition activity of compounds of the present disclosure
The enzyme activity of some of the example compounds was verified using the ADP-GLO method.
PKMYT1 enzyme protein was purchased from Thermo Scientific (Cat. No.: A33387), and the ADP-GLO kit was purchased from Promega (Cat. No.: V9103).
PKMYT1 enzyme activity reaction buffer: 70 mM HEPES, 3 mM MgCl2, 3 mM MnCl2, 50 µg mL-1PEG20000, 3 µM sodium orthovanadate, 1.2 mM DTT.
The reaction plate with the added compounds was centrifuged at 2500 rpm for 1 minute.
The prepared enzyme solution was added to the reaction plate, 5 µL per well, and the final concentration of enzyme was 10 nM. The reaction plate was centrifuged at 1000 rpm for 1 minute. The reaction plate was placed in an incubator at 37°C for 15 minutes.
The prepared ATP substrate solution was added to the reaction plate, 5 µL per well, and the final concentration of ATP was 5 µM. The reaction plate was centrifuged at 1000 rpm for 1 minute. After sealing the plate with aluminum foil, the plate was placed in an incubator and the reaction was carried out at 37°C for 90 minutes.
10 µL of ADP-glo™ reagent was added to stop the kinase reaction and consume unconsumed ATP, leaving only ADP and a very low ATP background. The reaction plate was centrifuged at 1000 rpm for 1 minute. After sealing the plate with aluminum foil, the reaction was carried out at room temperature for 60 minutes.
ADP was converted to ATP by adding 20 µL of kinase detection reagent, and luciferase and luciferin were introduced to detect ATP. The reaction plate was centrifuged at 1000 rpm for 1 minute. After sealing the plate with aluminum foil, the reaction was carried out at room temperature for 60 minutes.
The ADP-GLO luminescence signal values were read by the microplate reader PHERAstar, and the readings were analyzed.
Turning to `Cc1cc2c(C(N)=O)c(N)n(-c3c(C)cnc(O)c3C)c2nc1C` [Example 50, 2-Amino-1-(2-hydroxy-3,5-dimethylpyridin-4-yl)-5,6-dimethyl-1H-pyrrolo[2,3-b]pyridine-3-carboxamide], the concentration for half-maximal inhibition (IC50) is 220 nM. In the case of `Cc1ccc(O)c(C)c1-n1c(N)c(C(N)=O)c2cnc(-c3ccccc3)nc21` [Example 11, 6-Amino-7-(3-hydroxy-2,6-dimethylphenyl)-2-phenyl-7H-pyrrolo[2,3-d]pyrimidine-5-carboxamide], the IC50 worked out at 15.7 nM. For the compound `Cc1cc(F)c(O)c(C)c1-n1c(N)c(C(N)=O)c2cc3c(nc21)CCCC3` (atropisomer, axis not shown) [Example 177.2], the IC50 turned out to be 8.15 nM.

For the compound `Cc1cc2c(C(N)=O)c(N)n(-c3c(C)cc(Cl)c(O)c3C)c2nc1C` [Example 43, 2-Amino-1-(4-chloro-3-hydroxy-2,6-dimethylphenyl)-5,6-dimethyl-1H-pyrrolo[2,3-b]pyridine-3-carboxamide], the IC50 stood at 26.4 nM. In the case of `COC(C)(C)c1cnc2c(c1)c(C(N)=O)c(N)n2-c1c(C)cc(F)c(O)c1C` [Example 146], the IC50 worked out at 35.2 nM. Regarding `Cc1cc2c(C(N)=O)c(N)n(-c3c(C)c(O)cc(F)c3C)c2nc1-c1ccnn1C` [Example 124], the IC50 worked out at 10.4 nM. `Cc1cc(F)c(O)c(C)c1-n1c(N)c(C(N)=O)c2cc(C(C)(C)O)c(C)nc21` (atropisomer, axis not shown) [Example 172.1]: the IC50 turned out to be 4.6 nM. As to `Cc1cc2c(C(N)=O)c(N)n(-c3c(C)cc(Br)c(O)c3C)c2nc1C` [Example 97], the IC50 stood at 187 nM. The same measure for `Cc1cc2c(C(N)=O)c(N)n(-c3c(C)ccc(O)c3C)c2nc1N` [Example 95]: 9.47 nM; for `CCc1ccc(O)c(CC)c1-n1c(N)c(C(N)=O)c2cnc(C)nc21` [Example 32, 6-Amino-7-(2,6-diethyl-3-hydroxyphenyl)-2-methyl-7H-pyrrolo[2,3-d]pyrimidine-5-carboxamide]: 263 nM; for `CCc1ccc(O)c(C)c1-n1c(N)c(C(N)=O)c2cnc(C)nc21` [Example 68]: 299 nM.

On to `Cc1ccc(O)c(C)c1-n1c(N)c(C(N)=O)c2cnc(N3CCCC3)nc21` [Example 35, 6-Amino-7-(3-hydroxy-2,6-dimethylphenyl)-2-(pyrrolidin-1-yl)-7H-pyrrolo[2,3-d]pyrimidine-5-carboxamide], for which the IC50 is 37.8 nM. As to `C=C(C)c1cnc2c(c1)c(C(N)=O)c(N)n2-c1c(C)cc(F)c(O)c1C` [Example 155], the IC50 is 23.2 nM. With `Cc1c(O)cc(F)c(C)c1-n1c(N)c(C(N)=O)c2cc(N3CCOCC3)cnc21` [Example 117], the IC50 was determined as 192 nM. Take `Cc1ncc2c(C(N)=O)c(N)n(-c3c(C)c(O)cc(F)c3C)c2n1` (racemic) [Example 63]: the IC50 stood at 5.14 nM. `C=C(C)c1cc2c(C(N)=O)c(N)n(-c3c(C)cc(F)c(O)c3C)c2nc1C` [Example 156]: the IC50 was determined as 26.4 nM.

As to `CC(C)=Cc1ncc2c(C(N)=O)c(N)n(-c3c(C)ccc(O)c3C)c2n1` [Example 42, 6-Amino-7-(3-hydroxy-2,6-dimethylphenyl)-2-(2-methylprop-1-en-1-yl)-7H-pyrrolo[2,3-d]pyrimidine-5-carboxamide], the IC50 worked out at 6.62 nM. `Cc1cc(F)c(O)c(C)c1-n1c(N)c(C(N)=O)c2cc(C(F)(F)F)c(C)nc21` [Example 59, 2-Amino-1-(4-fluoro-3-hydroxy-2,6-dimethylphenyl)-6-methyl-5-(trifluoromethyl)-1H-pyrrolo[2,3-b]pyridine-3-carboxamide]: the IC50 is 8.67 nM. With `Cc1cc(F)c(O)c(C)c1-n1c(N)c(C(N)=O)c2cc(CO)c(C)nc21` [Example 164], the IC50 is 7.06 nM.

As for `Cc1cc(F)c(O)c(C)c1-n1c(N)c(C(N)=O)c2cc(C3=CCOCC3)c(C)nc21` (atropisomer, axis not shown) [Example 175], the IC50 was determined as 4.8 nM.

As to `Cc1cc(F)c(O)c(C)c1-n1c(N)c(C(N)=O)c2cc(OC3CCC3)c(C)nc21` [Example 96], the IC50 is 9.4 nM.

On to `Cc1nc(Cl)c2c(C(N)=O)c(N)n(-c3c(C)ccc(O)c3C)c2n1` [Example 28, 6-Amino-4-chloro-7-(3-hydroxy-2,6-dimethylphenyl)-2-methyl-7H-pyrrolo[2,3-d]pyrimidine-5-carboxamide], for which the IC50 was 13.8 nM. Regarding `Cc1cc(F)c(O)c(C)c1-n1c(N)c(C(N)=O)c2c3cnccc3c(C)cc21` [Example 207], the IC50 came out at 4.08 nM. With `Cc1cc(F)c(O)c(C)c1-n1c(N)c(C(N)=O)c2cc(C3CC3)cnc21` (single isomer, unassigned) [Example 144.1], the IC50 was determined as 2.08 nM. As for `Cc1ccc(O)c(C)c1-n1c(N)c(C(N)=O)c2cnc(NC3CCCC3)nc21` [Example 76], the IC50 was found to be 4.02 nM. `C=C(C)c1nc2c(cc1C)c(C(N)=O)c(N)n2-c1c(C)c(O)cc(F)c1C` [Example 138]: the IC50 was 27 nM.

Take `Cc1nc2c(cc1C(=O)O)c(C(N)=O)c(N)n2-c1c(C)c(O)cc(F)c1C` [Example 90]: the IC50 was determined as 90.7 nM. As to `Cc1cc(F)c(O)c(C)c1-n1c(N)c(C(N)=O)c2cc(C3CCOCC3)c(C)nc21` (atropisomer, axis not shown) [Example 163.1], the IC50 was determined as 5.7 nM. Turning to `C=C(C)c1nc2c(cc1C)c(C(N)=O)c(N)n2-c1c(C)cc(F)c(O)c1C` [Example 152], the IC50 stood at 47.9 nM.

In the case of `Cc1c(O)cc(F)c(C)c1-n1c(N)c(C(N)=O)c2c(C)c3c(nc21)CCC3` [Example 182], the IC50 was determined as 85.7 nM. Consider `Cc1ncc2c(C(N)=O)c(N)n(-c3c(C)cc(F)c(O)c3C)c2n1` [Example 65], for which the IC50 amounted to 23.8 nM. Turning to `Cc1cc(F)c(O)c(C)c1-n1c(N)c(C(N)=O)c2cc(C(C)(C)O)cnc21` [Example 145], the IC50 was found to be 24.3 nM. Under `Cc1ccc(O)c(C)c1-n1c(N)c(C(N)=O)c2cnc(C3CCOCC3)nc21` [Example 18, 6-Amino-7-(3-hydroxy-2,6-dimethylphenyl)-2-(tetrahydro-2H-pyran-4-yl)-7H-pyrrolo[2,3-d]pyrimidine-5-carboxamide] stands 18.3 nM; under `Cc1ccc(O)c(C)c1-n1c(N)c(C(N)=O)c2cnc(NC3CC3)nc21` [Example 84], 5.28 nM; under `Cc1ccc(O)c(C)c1-n1c(N)c(C(N)=O)c2cnc(C#N)nc21` [Example 14, 6-Amino-2-cyano-7-(3-hydroxy-2,6-dimethylphenyl)-7H-pyrrolo[2,3-d]pyrimidine-5-carboxamide], 24.3 nM. In the case of `Cc1ccc(O)c(C)c1-n1c(N)c(C(N)=O)c2cnc(C)c(F)c21` [Example 29, 2-Amino-7-fluoro-1-(3-hydroxy-2,6-dimethylphenyl)-6-methyl-1H-pyrrolo[3,2-c]nicotinamide], the concentration for half-maximal inhibition (IC50) came to 12.4 nM. On to `Cc1ncc2c(C(N)=O)c(N)n(-c3c(C)c(O)cc(F)c3C)c2c1F` (racemic) [Example 71], for which the IC50 was 7.99 nM. With `CCc1nc(C)nc2c1c(C(N)=O)c(N)n2-c1c(C)c(O)cc(F)c1C` [Example 61], the IC50 is 38.6 nM.

Regarding `Cc1cc(F)c(O)c(C)c1-n1c(N)c(C(N)=O)c2c3c(c(C)nc21)CCC3` (racemic) [Example 176], the IC50 is 9.81 nM. As to `COc1cc2c(C(N)=O)c(N)n(-c3c(C)cc(F)c(O)c3C)c2nc1C` (racemic) [Example 158], the IC50 was 8.18 nM. In the case of `Cc1ccc(O)c(C)c1-n1c(N)c(C(N)=O)c2cnc(C3CCC(F)(F)CC3)nc21` [Example 88], the IC50 was 16 nM.

On to `Cc1cc(F)c(O)c(C)c1-n1c(N)c(C(N)=O)c2cc(OC(C)C)c(C)nc21` [Example 160], for which the IC50 was 7.85 nM. Turning to `Cc1ccc(O)c(C)c1-n1c(N)c(C(N)=O)c2cnc(CC(C)C)nc21` [Example 57, 6-Amino-7-(3-hydroxy-2,6-dimethylphenyl)-2-isobutyl-7H-pyrrolo[2,3-d]pyrimidine-5-carboxamide], the IC50 was determined as 3.04 nM. Take `[2H]C([2H])([2H])c1nc2c(cc1C(F)(F)F)c(C(N)=O)c(N)n2-c1c(C)cc(F)c(O)c1C` (atropisomer, axis not shown) [Example 194.1]: the IC50 amounted to 5.3 nM. For the compound `Cc1ccc(O)c(C)c1-n1c(N)c(C(N)=O)c2cnc(N3CCC(F)(F)CC3)nc21` [Example 37, 6-Amino-2-(4,4-difluoropiperidin-1-yl)-7-(3-hydroxy-2,6-dimethylphenyl)-7H-pyrrolo[2,3-d]pyrimidine-5-carboxamide], the IC50 amounted to 3.09 nM. Take `Cc1cc(F)c(O)c(C)c1-n1c(N)c(C(N)=O)c2cc(S(C)(=O)=O)c(C)nc21` [Example 168]: the IC50 turned out to be 4.92 nM.

On to `CCCN(CC)c1ncc2c(C(N)=O)c(N)n(-c3c(C)ccc(O)c3C)c2n1` [Example 83], for which the IC50 stood at 41.8 nM.

For the compound `Cc1cc2c(C(N)=O)c(N)n(-c3c(C)c(F)cc(O)c3F)c2nc1C` [Example 107], the IC50 stood at 14.1 nM. Under `[2H]C([2H])([2H])c1nc2c(cc1C(F)(F)F)c(C(N)=O)c(N)n2-c1c(C)cc(F)c(O)c1C` (racemic) [Example 194] stands 6.36 nM; under `COc1cnc2c(c1)c(C(N)=O)c(N)n2-c1c(C)cc(F)c(O)c1C` [Example 149], 12.6 nM; under `Cc1cc2c(C(N)=O)c(N)n(-c3c(C)cc(F)c(O)c3C)c2nc1Cl` [Example 74], 7.11 nM.

Take `CCc1cc2c(C(N)=O)c(N)n(-c3c(C)cc(F)c(O)c3C)c2nc1C` (single isomer, unassigned) [Example 143.1]: the IC50 stood at 20 nM.
